Measured values from PubChem BioAssay (NCI).
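Here, GI50 denotes the concentration required for 50% inhibition of growth. The concentration for full growth arrest is given as TGI.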

How the values were obtained:
Test in all cases: NCI anticancer screen, dose series, 384-well format
[1] = system: HCT-15 colon
[2] = system: NCI/ADR-RES ovarian
[3] = system: SF-539 CNS
[4] = system: SK-OV-3 ovarian
[5] = system: NCI-H322M lung
[6] = system: RPMI-8226 leukemia
[7] = system: TK-10 renal
[8] = system: SW-620 colon
[9] = system: NCI-H460 NSCLC
[10] = system: HL-60(TB) leukemia
[11] = system: COLO 205 colon
[12] = system: EKVX NSCLC
[13] = system: MALME-3M melanoma
[14] = system: NCI-H23 lung
[15] = system: MCF7 breast
[16] = system: RXF 393 renal
[17] = system: IGROV1 ovarian
[18] = system: NCI-H226 lung
[19] = system: OVCAR-4 ovarian
[20] = system: K-562 leukemia
[21] = system: SF-268 CNS
[22] = system: BT-549 breast
[23] = system: UO-31 renal
[24] = system: SNB-75 CNS
[25] = system: T-47D breast
[26] = system: M14 melanoma
[27] = system: MDA-MB-468 breast
[28] = system: 786-0 renal
[29] = system: A549 NSCLC
[30] = system: A498 renal
[31] = system: KM12 colon
[32] = system: CAKI-1 renal
[33] = system: PC-3 prostate
[34] = system: MDA-MB-231 breast
[35] = system: HT29 colon
[36] = system: U251 glioblastoma
[37] = system: HOP-62 NSCLC
[38] = system: OVCAR-8 ovarian
[39] = system: SF-295 CNS
[40] = system: HS 578T breast
[41] = system: UACC-62 melanoma
[42] = system: SNB-19 CNS
[43] = system: MOLT-4 leukemia
[44] = system: DU-145 prostate
[45] = system: NCI-H522 lung
[46] = system: OVCAR-5 ovarian
[47] = system: SK-MEL-5 melanoma
[48] = system: SN12C renal
[49] = system: SR leukemia
[50] = system: MDA-MB-435 melanoma
[51] = system: UACC-257 melanoma
[52] = system: OVCAR-3 ovarian
[53] = system: HCC-2998 colon
[54] = system: LOX IMVI melanoma
[55] = system: ACHN renal
[56] = system: SK-MEL-28 melanoma
[57] = system: CCRF-CEM leukemia
[58] = system: HOP-92 NSCLC

CC1(COc2ccc3c(c2)ncn3-c2ccc3cccc(N4CCC(N)CC4)c3n2)COC1
GI50 [1]: 1.45 µM
TGI [1]: 2.99 µM
GI50 [2]: 1.71 µM
TGI [2]: 3.39 µM
GI50 [3]: 0.501 µM
TGI [3]: 1.93 µM
GI50 [4]: 1.61 µM
TGI [4]: 3 µM
GI50 [5]: 1.95 µM
TGI [5]: 3.49 µM
GI50 [6]: 0.242 µM
TGI [6]: 0.708 µM
GI50 [7]: 1.71 µM
TGI [7]: 3.68 µM
GI50 [8]: 1.1 µM
TGI [8]: 2.42 µM
GI50 [9]: 0.479 µM
TGI [9]: 1.6 µM
GI50 [10]: 0.275 µM
TGI [10]: 0.901 µM
GI50 [11]: 0.482 µM
TGI [11]: 1.63 µM
GI50 [12]: 1.76 µM
TGI [12]: 3.41 µM
GI50 [13]: 1.85 µM
TGI [13]: 3.25 µM
GI50 [14]: 0.622 µM
TGI [14]: 1.88 µM
GI50 [15]: 1.35 µM
TGI [15]: 2.65 µM
GI50 [16]: 1.56 µM
TGI [16]: 2.91 µM
GI50 [17]: 1.67 µM
TGI [17]: 3.08 µM
GI50 [18]: 1.56 µM
TGI [18]: 2.99 µM
GI50 [19]: 2.18 µM
TGI [19]: 3.64 µM
GI50 [20]: 0.967 µM
TGI [20]: 2.15 µM
GI50 [21]: 1.16 µM
TGI [21]: 2.44 µM
GI50 [22]: 0.37 µM
TGI [22]: 1.41 µM
GI50 [23]: 1.55 µM
TGI [23]: 2.95 µM
GI50 [24]: 1.53 µM
TGI [24]: 2.87 µM
GI50 [25]: 2.07 µM
TGI [25]: 3.56 µM
GI50 [26]: 1.5 µM
TGI [26]: 2.83 µM
GI50 [27]: 0.532 µM
TGI [27]: 1.6 µM
GI50 [28]: 0.808 µM
TGI [28]: 2.07 µM
GI50 [29]: 1.28 µM
TGI [29]: 2.63 µM
GI50 [30]: 1.67 µM
TGI [30]: 3.04 µM
GI50 [31]: 0.0395 µM
TGI [31]: 1.45 µM
GI50 [32]: 1 µM
TGI [32]: 2.23 µM
GI50 [33]: 1.69 µM
TGI [33]: 3.16 µM
GI50 [34]: 1.06 µM
TGI [34]: 2.5 µM
GI50 [35]: 1.63 µM
TGI [35]: 3.05 µM
GI50 [36]: 1.34 µM
TGI [36]: 2.7 µM
GI50 [37]: 0.556 µM
TGI [37]: 1.76 µM
GI50 [38]: 1.18 µM
TGI [38]: 2.43 µM
GI50 [39]: 1.58 µM
TGI [39]: 2.94 µM
GI50 [40]: 0.573 µM
TGI [40]: 1.73 µM
GI50 [41]: 1.46 µM
TGI [41]: 2.77 µM
GI50 [42]: 1.98 µM
TGI [42]: 4.52 µM
GI50 [43]: 0.362 µM
TGI [43]: 1.17 µM
GI50 [44]: 1.09 µM
TGI [44]: 2.35 µM
GI50 [45]: 0.441 µM
TGI [45]: 1.63 µM
GI50 [46]: 1.73 µM
TGI [46]: 3.41 µM
GI50 [47]: 1.37 µM
TGI [47]: 2.66 µM
GI50 [48]: 0.25 µM
TGI [48]: 1.58 µM
GI50 [49]: 0.185 µM
TGI [49]: 0.43 µM
GI50 [50]: 1.28 µM
TGI [50]: 2.55 µM
GI50 [51]: 2.71 µM
TGI [51]: 4.19 µM
GI50 [52]: 1.56 µM
TGI [52]: 3.01 µM
GI50 [53]: 1.39 µM
TGI [53]: 2.73 µM
GI50 [54]: 0.636 µM
TGI [54]: 1.89 µM
GI50 [55]: 1.15 µM
TGI [55]: 2.47 µM
GI50 [56]: 1.68 µM
TGI [56]: 3.05 µM
GI50 [57]: 0.365 µM
TGI [57]: 1.4 µM
GI50 [58]: 1.18 µM
TGI [58]: 2.47 µM
